Assay [1] deals with T1, 380 human recombinant protein kinases (Homo sapiens, UniProt P09619).
T1 construct: purchased Eurofins (Celle Lévescault)
Description: Eurofins kinase selectivity profile against 380 other human recombinant kinases (Table S2). It counts as biochemical. The note with it: PDGFRβ(h), read-out: Inhibition rate. On the procedure:
(§1) Subsequently, to ascertain whether the high potency of compound 11 was specific for MK2, an additional 380 human recombinant protein kinases were screened.
(§2) To assess the impact of various compounds on MK2 kinase activity, we utilized the ADP‐Glo Assay Kit (Promega) following the manufacturer's instructions. Luminescence measurements were taken using a SpectraMax Paradigm reader. The inhibition percentage was calculated using the following formula: ((specific signalDMSO control − specific signal inhibitor)/(specific signalDMSO control)) × 100%. The IC50 values were determined employing dose–response curve fitting via Prism (Graph Pad). Additionally, Eurofins company (Celle Lévescault) conducted the analysis on compound 11’s inhibitory activity against 380 other human recombinant kinases at various concentrations.

In assay [2] the target is T2, 380 human recombinant protein kinases (Homo sapiens, UniProt P34947).
T2 construct: purchased Eurofins (Celle Lévescault)
The description is as above. It counts as biochemical. The conditions noted are these: GRK5(h), read-out: Inhibition rate. On the procedure:
as §1, §2

Assay [3] concerns the target T3, 380 human recombinant protein kinases (Homo sapiens, UniProt P43250).
T3 construct: purchased Eurofins (Celle Lévescault)
The assay is described as above. It counts as biochemical. The conditions noted are these: GRK6(h), read-out: Inhibition rate. The protocol: as §1, §2

Assay [4] has as its target T4, 380 human recombinant protein kinases (Homo sapiens, UniProt Q8WTQ7).
T4 construct: purchased Eurofins (Celle Lévescault)
T4 sequence (Q8WTQ7 1-553): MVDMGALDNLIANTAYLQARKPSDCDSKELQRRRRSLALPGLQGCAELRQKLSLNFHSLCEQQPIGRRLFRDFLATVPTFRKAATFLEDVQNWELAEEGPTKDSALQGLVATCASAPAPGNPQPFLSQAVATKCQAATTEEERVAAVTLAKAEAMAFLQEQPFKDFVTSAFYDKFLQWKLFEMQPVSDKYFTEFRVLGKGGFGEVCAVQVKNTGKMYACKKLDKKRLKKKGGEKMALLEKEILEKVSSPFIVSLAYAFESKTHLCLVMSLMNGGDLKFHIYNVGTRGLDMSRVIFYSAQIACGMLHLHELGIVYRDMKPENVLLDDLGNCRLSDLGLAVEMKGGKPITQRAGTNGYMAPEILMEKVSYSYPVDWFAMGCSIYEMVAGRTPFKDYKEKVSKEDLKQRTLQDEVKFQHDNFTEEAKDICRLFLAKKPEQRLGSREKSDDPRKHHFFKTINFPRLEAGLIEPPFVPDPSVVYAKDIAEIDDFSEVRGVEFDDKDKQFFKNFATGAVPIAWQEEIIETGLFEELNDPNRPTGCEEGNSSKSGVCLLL
The description is as above. It counts as biochemical. The note with it: GRK7(h), read-out: Inhibition rate. The protocol:
as §1, §2

The target of assay [5] is T5, 380 human recombinant protein kinases (Homo sapiens, UniProt Q92630).
T5 construct: purchased Eurofins (Celle Lévescault)
T5 sequence (Q92630 1-601): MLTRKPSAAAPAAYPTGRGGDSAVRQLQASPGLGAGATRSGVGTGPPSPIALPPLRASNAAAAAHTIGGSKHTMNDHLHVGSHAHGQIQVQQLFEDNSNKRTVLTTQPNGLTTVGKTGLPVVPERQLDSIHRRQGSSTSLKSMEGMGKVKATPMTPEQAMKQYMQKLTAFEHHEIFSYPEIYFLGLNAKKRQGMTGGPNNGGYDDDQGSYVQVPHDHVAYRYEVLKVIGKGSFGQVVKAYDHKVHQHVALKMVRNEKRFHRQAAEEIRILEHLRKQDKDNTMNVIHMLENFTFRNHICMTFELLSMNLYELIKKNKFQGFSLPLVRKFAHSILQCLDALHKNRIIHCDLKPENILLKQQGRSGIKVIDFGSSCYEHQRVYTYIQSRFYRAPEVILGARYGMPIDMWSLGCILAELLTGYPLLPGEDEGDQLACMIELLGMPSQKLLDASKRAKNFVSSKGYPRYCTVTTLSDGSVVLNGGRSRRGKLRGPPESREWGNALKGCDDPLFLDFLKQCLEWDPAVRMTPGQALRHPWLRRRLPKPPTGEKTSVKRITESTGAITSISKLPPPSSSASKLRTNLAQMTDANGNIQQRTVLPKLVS
Described as above. It counts as biochemical. The note with it: DYRK2(h), read-out: Inhibition rate. On the procedure: as §1, §2

In assay [6] the test system is MRC1 and ARG-1 mRNA in RAW264.7 macrophages. Briefly: RT-PCR of M2 markers in IL-4/IL-13 stimulated RAW264.7 macrophages. It counts as cell-based, mouse. The conditions noted are these: IL-4/IL-13 20 ng/mL. The text has this:
A previous study has reported that MK2 fostered M2‐like polarization of TAMs, driving a protumor and proangiogenic phenotype which in turn accelerates tumor progression.[21] We thus assessed the influence of compound 11 on macrophage polarization and function. Our experiments used human THP‐1 monocyte induced macrophages, mouse RAW264.7 macrophages, and mouse bone marrow‐derived macrophages (BMDM). These cells were induced into M2‐like macrophages using the classic IL‐4 and IL‐13 stimuli.
FIGURE 5 Inhibition of pro‐tumorigenic M2‐like polarization in macrophages by compound 11. (A–C) RT‐PCR analysis highlights the impact of compound 11 on MRC1 and ARG‐1 mRNA expression in various macrophage cells treated with IL‐4/IL‐13 alone or combined with compound 11 for 12 h or 24 h. […] Data are shown as the mean ± SD. ^* p < 0.05; ^*** p < 0.001 versus the vehicle group, determined by unpaired t test. […]
Total RNA was extracted from cultured cells using the EZ‐press RNA Purification Kit (EZBioscience). Complementary DNA was synthesized using the ABScript III RT Master Mix for qPCR with gDNA remover (ABclonal Technology) and was quantified with primers listed in Table S5. The relative mRNA expression levels were quantified through qPCR using the SYBR green gene expression assay (ABclonal Technology).

SMILES strings stand for the structures.

T3 sequence (P43250 whole entry): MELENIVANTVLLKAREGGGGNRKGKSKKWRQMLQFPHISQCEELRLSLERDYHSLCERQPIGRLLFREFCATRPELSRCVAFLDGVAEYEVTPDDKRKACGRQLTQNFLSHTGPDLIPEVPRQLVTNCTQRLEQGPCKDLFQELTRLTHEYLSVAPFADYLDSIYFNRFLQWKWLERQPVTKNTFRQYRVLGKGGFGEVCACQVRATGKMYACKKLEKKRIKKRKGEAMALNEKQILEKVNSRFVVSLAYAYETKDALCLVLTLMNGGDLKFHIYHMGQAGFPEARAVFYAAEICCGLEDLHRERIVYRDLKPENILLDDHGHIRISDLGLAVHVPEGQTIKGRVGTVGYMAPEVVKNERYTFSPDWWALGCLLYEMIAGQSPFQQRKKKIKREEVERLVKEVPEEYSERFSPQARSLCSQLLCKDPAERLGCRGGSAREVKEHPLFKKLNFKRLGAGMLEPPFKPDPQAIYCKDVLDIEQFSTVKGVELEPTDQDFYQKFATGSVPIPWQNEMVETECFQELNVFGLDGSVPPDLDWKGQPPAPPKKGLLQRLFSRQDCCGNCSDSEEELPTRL
T2 sequence (P34947 whole entry): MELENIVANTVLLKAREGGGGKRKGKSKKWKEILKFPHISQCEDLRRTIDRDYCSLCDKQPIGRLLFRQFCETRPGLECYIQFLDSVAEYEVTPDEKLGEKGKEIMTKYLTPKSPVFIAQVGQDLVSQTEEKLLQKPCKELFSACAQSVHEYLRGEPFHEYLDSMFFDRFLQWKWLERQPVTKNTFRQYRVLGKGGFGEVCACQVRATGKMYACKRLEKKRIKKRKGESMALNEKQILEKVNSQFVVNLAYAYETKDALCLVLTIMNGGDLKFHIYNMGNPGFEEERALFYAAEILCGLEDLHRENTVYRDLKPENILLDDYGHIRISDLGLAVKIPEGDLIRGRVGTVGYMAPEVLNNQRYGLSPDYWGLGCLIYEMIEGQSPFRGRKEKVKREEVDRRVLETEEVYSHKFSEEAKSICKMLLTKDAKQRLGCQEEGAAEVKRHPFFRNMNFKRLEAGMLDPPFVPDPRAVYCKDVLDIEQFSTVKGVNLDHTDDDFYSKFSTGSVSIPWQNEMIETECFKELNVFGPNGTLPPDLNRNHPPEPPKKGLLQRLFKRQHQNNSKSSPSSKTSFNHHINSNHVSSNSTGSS
T1 sequence (P09619 33-1106): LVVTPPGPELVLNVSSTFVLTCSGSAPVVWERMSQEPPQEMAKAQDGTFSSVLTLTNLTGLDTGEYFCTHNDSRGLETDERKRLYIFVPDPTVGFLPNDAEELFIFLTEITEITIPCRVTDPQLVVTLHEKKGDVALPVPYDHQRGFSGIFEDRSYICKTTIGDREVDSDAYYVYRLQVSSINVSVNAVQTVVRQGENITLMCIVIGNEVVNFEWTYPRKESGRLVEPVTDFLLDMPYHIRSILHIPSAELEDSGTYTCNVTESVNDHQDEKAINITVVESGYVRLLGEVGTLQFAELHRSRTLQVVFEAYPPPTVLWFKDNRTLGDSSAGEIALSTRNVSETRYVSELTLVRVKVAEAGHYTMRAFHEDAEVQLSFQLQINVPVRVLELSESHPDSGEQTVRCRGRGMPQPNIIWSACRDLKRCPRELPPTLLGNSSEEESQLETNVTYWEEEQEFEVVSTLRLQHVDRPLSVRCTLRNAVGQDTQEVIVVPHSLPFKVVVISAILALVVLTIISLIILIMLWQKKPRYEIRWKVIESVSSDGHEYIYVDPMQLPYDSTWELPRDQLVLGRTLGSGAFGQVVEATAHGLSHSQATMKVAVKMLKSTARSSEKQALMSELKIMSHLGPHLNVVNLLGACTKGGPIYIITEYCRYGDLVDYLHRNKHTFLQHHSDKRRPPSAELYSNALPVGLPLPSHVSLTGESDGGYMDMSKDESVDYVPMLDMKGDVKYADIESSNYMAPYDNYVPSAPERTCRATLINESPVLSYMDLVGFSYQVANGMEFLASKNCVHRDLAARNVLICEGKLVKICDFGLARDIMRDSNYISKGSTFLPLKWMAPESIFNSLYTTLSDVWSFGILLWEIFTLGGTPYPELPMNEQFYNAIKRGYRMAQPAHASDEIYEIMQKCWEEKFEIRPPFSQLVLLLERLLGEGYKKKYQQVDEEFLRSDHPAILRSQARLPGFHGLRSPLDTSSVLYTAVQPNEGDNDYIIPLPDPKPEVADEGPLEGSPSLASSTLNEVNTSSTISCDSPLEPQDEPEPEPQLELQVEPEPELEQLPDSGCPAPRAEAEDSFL

For orientation: inhibition means the drop in the measured response relative to a control, in per cent. In the case of `C=CC(=O)Nc1cc(-c2cc(-c3cc4c([nH]3)CCNC4=O)ccn2)ccc1OC(F)(F)F` [compound 11], the inhibition at 0.01 µM in assay [1] (10 nM) was 0%; in assay [2] (10 nM), -6%; in assay [3] (10 nM), -1%; in assay [4] (10 nM), -4%; in assay [5] (10 nM), 16%. For the same molecule, the inhibition at 0.1 µM in assay [1] (100 nM) was -16%; in assay [2] (100 nM), -2%; in assay [3] (100 nM) it was -1%; in assay [4] (100 nM) it was -6%; in assay [5] (100 nM), 67%. The inhibition at 1 µM was -11% in assay [1] (1000 nM); 0% in assay [2] (1000 nM); 1% in assay [3] (1000 nM); 2% in assay [4] (1000 nM); 98% in assay [5] (1000 nM). Moreover, the “effect on transcriptional level of MRC1 and ARG-1” value in assay [6] is reported as “significantly suppressed”.
